{"source": "patent US20030069264A1", "about": "“METHOD OF DETERMINING AND REDUCING THE RISK OF BPH-RELATED UROLOGIC EVENTS” (priority 1998, published 2003)", "test_system": "men with clinical BPH", "experiment": "four-year, double-blind placebo-controlled study of finasteride in men with clinical BPH (acute urinary retention and BPH-related surgery outcomes)", "format": "in vivo, human", "details": "for risk of AUR or BPH-related surgery / finasteride-related reduction of risk (AUR or surgery): 4 years; for finasteride-related reduction of risk (AUR or surgery): versus placebo", "experimental": "A total of 3040 men with clinical BPH diagnosed on the basis of moderate-to-severe symptoms, a decreased peak urinary flow rate (less than 15 mL/sec with a voided volume of 150 mL or more) and an enlarged prostate gland by digital rectal examination (DRE) were enrolled in a four-year study comparing finasteride with placebo. Men receiving alpha blocking agents or antiandrogens, and men with a history of chronic prostatitis, recurrent urinary tract infections, prostate or bladder cancer or surgery, or a serum PSA over 10 ng/mL were excluded. Men with serum PSA concentrations between 4.0 and 9.9 ng/mL had to have a negative prostate biopsy prior to enrollment.\nAfter a one-month single-blind placebo lead-in, men were randomly assigned to receive placebo or 5 mg of finasteride (17β-(N-tert-butylcarbamoyl)-3-oxo-4-aza-5α-androst-1-en-3-one) daily in a four year, double-blind placebo-controlled study. BPH-related outcomes including symptoms, bothersomeness, adverse events and urinary flow rates, were assessed every 4 months. Serum PSA was measured every 4 months in the first year and then every 8 months at a central laboratory. Physical examination and routine hematological and serum chemistry tests were performed yearly. Magnetic resonance imaging (MRI) was performed at baseline and subsequently yearly in a subset of 10% of patients. All MRI images were read by a central radiologist blinded to treatment allocation and time of imaging.\nAcute urinary retention (AUR) and surgery for BPH were predefined secondary end-points. The endpoint committee, blinded to treatment group, reviewed all study-related documents related to episodes of acute urinary retention, and all prostate surgeries for BPH, excluding surgery for prostate cancer. The endpoint committee classified episodes of AUR as spontaneous versus precipitated (when contributing factors such as urinary tract infection, surgery anesthesia, ingestion of alpha sympathomimetic drugs or anticholinergics were identified).\nComplete data on outcomes, including four-year follow-up information for men who had discontinued treatment, were available for 92% of the men randomized. In the other 8%, complete information was available until discontinuation of the medication or up to the 6-month follow-up assessment after discontinuation.\nThe effect of baseline serum PSA on the risk of BPH-related outcomes (developing AUR and need for BPH-related surgery), were assessed by dividing patients into tertiles of baseline serum PSA, and calculating the risk of developing an outcome by time-to-first event analysis as well as Fisher's exact test for cumulative incidence. The finasteride-related reduction in risk over 4 years was calculated using log rank analyses. All statistical tests were two-sided and a p-value of <0.05 accepted as significant.\nThe measurement characteristics of baseline in prediction of BPH-related outcomes were evaluated using receiver operating characteristic (ROC) curves. The area under the ROC curve (AUC) for a given population is given by the probability that a randomly chosen individual in the affected population has a higher value of the index (in this case PSA) than a randomly chosen individual in the non-affected population. The AUC's were computed using the method of Hanley and McNeil. Differences between AUC's in the finasteride and placebo group were tested using normal statistics with standard deviations computed by the same method.", "key": {"[1]": {"details": "5 mg daily, four years, all patients"}, "[2]": {"details": "lowest tertile of serum PSA (0.0-1.3 ng/mL)"}, "[3]": {"details": "second tertile (serum PSA 1.4-3.2 ng/mL)"}}, "note": "Entries after “also recorded” stand apart in the source; their conditions may differ.", "data": [{"molecule": "CC(C)(C)NC(=O)[C@H]1CC[C@H]2[C@@H]3CC[C@H]4NC(=O)C=C[C@]4(C)[C@H]3CC[C@]12C", "note": "[finasteride, 17β-(N-tert-butylcarbamoyl)-3-oxo-4-aza-5α-androst-1-en-3-one]", "values": [{"measurement": "incidence of BPH-related surgery", "setting": "[1]", "value": 5, "unit": "%"}, {"measurement": "incidence of precipitated AUR", "setting": "[1]", "value": 2, "unit": "%"}, {"measurement": "incidence of spontaneous AUR", "setting": "[1]", "value": 1, "unit": "%"}, {"measurement": "overall incidence of acute urinary retention", "setting": "5 mg finasteride daily, four years, all patients", "value": 4, "unit": "%"}, {"measurement": "decrease of the risk of developing a BPH-related outcome", "setting": "all subgroups examined", "value": "approximately half"}, {"measurement": "increase of cumulative incidence of spontaneous AUR with increasing baseline serum PSA", "setting": "finasteride-treated patients, four years, FIG. 1", "value": "nearly absent; also recorded: the risk remains unchanged over the entire serum PSA spectrum"}, {"measurement": "increase of cumulative incidence of all AUR (spontaneous and precipitated combined) with increasing baseline serum PSA", "setting": "finasteride-treated patients, four years, FIG. 2", "value": "nearly absent"}, {"measurement": "increase of cumulative incidence of BPH-related surgery across baseline PSA values", "setting": "finasteride-treated patients, four years, FIG. 3", "value": "increases only in finasteride-treated patients in men with a baseline PSA above 5.0 ng/mL"}, {"measurement": "risk of AUR or BPH-related surgery", "setting": "highest tertile of baseline serum PSA", "value": 8.3, "unit": "%"}, {"measurement": "risk of AUR or BPH-related surgery", "setting": "lowest tertile of baseline serum PSA", "value": 4.4, "unit": "%"}, {"measurement": "4-year relative risk for finasteride versus placebo-treated patients", "setting": "[2]", "value": 0.57}, {"measurement": "benefit of finasteride over placebo in the first two years (risk of AUR or surgery)", "setting": "[2]", "value": "minimal; also recorded: no apparent benefit"}, {"measurement": "finasteride-related reduction of risk (AUR or surgery)", "setting": "[2]", "value": 43, "unit": "%"}, {"measurement": "4-year relative risk for finasteride versus placebo-treated patients", "setting": "[3]", "value": 0.54}, {"measurement": "finasteride-related reduction of risk (AUR or surgery)", "setting": "[3]", "value": 46, "unit": "%"}, {"measurement": "4-year relative risk for finasteride versus placebo treated patients", "setting": "third tertile of serum PSA (3.3-12 ng/mL)", "value": 0.40}, {"measurement": "finasteride-related reduction of risk (AUR or surgery)", "setting": "third/highest tertile of serum PSA (3.3-12 ng/mL)", "value": 60, "unit": "%"}]}]}
